In ChEMBL document CHEMBL1134990, “Trifluoromethyl ketones as inhibitors of histone deacetylase” (Bioorg Med Chem Lett, 2002):

How the values were obtained:
HT-1080 = assay: Anti-proliferative activity against human tumor cell line HT1080; type: functional, cell-based
[1] = biological target: T1, Histone deacetylase (HDAC1 and HDAC2) (Homo sapiens, UniProt Q13547+Q92769); assay: Inhibition of human histone deacetylase (mixture of HDAC1 and HDAC2) prepared from K562 erythroleukemia cells.; type: cell-based
T1 sequence (Q13547 whole entry, looked up): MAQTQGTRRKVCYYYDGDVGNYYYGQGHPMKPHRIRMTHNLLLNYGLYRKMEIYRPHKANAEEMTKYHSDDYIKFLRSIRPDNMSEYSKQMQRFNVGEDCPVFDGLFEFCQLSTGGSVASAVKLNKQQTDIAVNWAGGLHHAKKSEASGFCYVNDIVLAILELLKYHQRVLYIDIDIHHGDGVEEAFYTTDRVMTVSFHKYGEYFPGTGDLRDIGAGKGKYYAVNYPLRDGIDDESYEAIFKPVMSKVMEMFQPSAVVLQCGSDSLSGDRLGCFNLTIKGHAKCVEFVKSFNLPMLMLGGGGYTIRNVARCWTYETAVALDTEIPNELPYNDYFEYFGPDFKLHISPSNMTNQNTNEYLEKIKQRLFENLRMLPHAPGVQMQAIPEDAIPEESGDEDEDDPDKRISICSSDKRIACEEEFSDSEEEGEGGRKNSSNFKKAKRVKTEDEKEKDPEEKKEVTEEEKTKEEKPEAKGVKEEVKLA
T1 sequence (Q92769 whole entry, looked up): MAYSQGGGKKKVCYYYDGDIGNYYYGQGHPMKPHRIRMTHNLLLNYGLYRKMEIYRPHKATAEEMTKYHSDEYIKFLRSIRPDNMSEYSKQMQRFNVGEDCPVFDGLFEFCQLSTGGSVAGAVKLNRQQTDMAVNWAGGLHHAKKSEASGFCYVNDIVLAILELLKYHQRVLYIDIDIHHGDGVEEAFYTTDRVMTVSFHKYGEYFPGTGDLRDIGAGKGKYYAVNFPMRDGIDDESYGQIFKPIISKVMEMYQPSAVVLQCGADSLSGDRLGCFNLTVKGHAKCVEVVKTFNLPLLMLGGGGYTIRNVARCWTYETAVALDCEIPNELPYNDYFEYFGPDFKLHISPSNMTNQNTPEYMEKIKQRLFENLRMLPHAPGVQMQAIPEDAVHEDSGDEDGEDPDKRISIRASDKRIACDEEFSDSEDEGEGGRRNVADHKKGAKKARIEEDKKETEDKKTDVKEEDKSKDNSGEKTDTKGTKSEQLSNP

MDA-MB-435 = assay: Anti-proliferative activity against human tumor cell line MDA-435; type: functional, cell-based
[2] = biological target: T1, Histone deacetylase (HDAC1 and HDAC2); assay: Inhibition of human histone deacetylase (mixture of HDAC1 and HDAC2) prepared from K562 erythroleukemia cells; type: cell-based; details: concentration not given here

| SMILES | IC50 (HT-1080) [µM] | IC50 [1] [µM] | IC50 (MDA-MB-435) [µM] | inhibition [2] [%] |
| --- | --- | --- | --- | --- |
| O=C(CCCCCCC(=O)C(F)(F)F)Nc1cccc(-c2ccccc2)c1 | 16 | 0.38 | 23 |  |
| O=C(CCCCCCCOc1ccc(-c2ccccc2)cc1)C(F)(F)F |  |  |  | 72 |
| O=C(CCCCCCC(=O)C(F)(F)F)Nc1ccccc1 | 2.2 |  | 15 |  |
